In article PMC4303869 (Scientific Reports, 2015):

Biological target: Aβ42 (amyloid β-protein 42) (Homo sapiens, UniProt P05067)
Assay: ThT fluorescence fibrillogenesis assay
Assay type: biochemical

Aβ42 (amyloid β-protein 42), sequence (P05067 672-713): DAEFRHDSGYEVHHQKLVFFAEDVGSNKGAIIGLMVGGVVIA

Row | IC50 [µM] | Compound
1 | 2.4 ± 0.4 | O=C(O[C@@H]1Cc2c(O)cc(O)cc2O[C@@H]1c1cc(O)c(O)c(O)c1)c1cc(O)c(O)c(O)c1 [EGCG]
2 | 1.5 ± 0.3 | Oc1ccc2c(c1)OC[C@]1(O)Cc3cc(O)c(O)cc3[C@H]21 [brazilin]
